From patent publication US20230181678A1, “NOVEL ANTIBACTERIAL PEPTIDE OR PEPTIDE ANALOG AND USE THEREOF” (CAMP THERAPEUTICS INC., priority 2020, published 2023)
Square brackets hold non-standard residues; d marks the D form. * marks the point of attachment. Octanoyl = CCCCCCCC(=O)*; Dab = NCC[C@H](N)C(=O)O; Hexanoyl = CCCCCC(=O)*

How the values were obtained:
[1] = tested on: Acinetobacter baumannii ATCC 17978; experiment: MIC assay, sensitizing effect of peptide on antibiotics; type: cell-based; conditions: for sensitizing ability to erythromycin and novobiocin: recap of Example 1; for MIC reduction effect (fold reduction) of erythromycin: peptide 0.4 uM with erythromycin vs erythromycin alone
Description: Each peptide at a concentration of 0.4 uM was used together with the two gram-positive antibiotics erythromycin and novobiocin to identify their effect on Acinetobacter baumannii ATCC 17978 (MIC assay). Acinetobacter baumannii, which is Gram-negative bacteria commonly classified as an opportunistic pathogen, is a human-infecting bacterium with a high probability of nosocomial infection because it has broad-spectrum antibacterial resistance and is able to survive for a long time even in a low-humidity environment. For each of the gram-positive antibiotics, as compared with MIC of each antibiotic in a case of being used alone, fold reduction of MIC of each antibiotic was measured in a case where each antibiotic was used together with each peptide.
All MIC assay experiments were performed using the Clinical and Laboratory Standards Institute (CLSI) guidelines (Clinical & Laboratory Standards Institute: CLSI Guidelines, 2017). […] The cells were inoculated at 1.5×10^5 CFU per 200 μL solution of each well in a 96-well plate. The peptide and the antibiotic were prepared using 2-fold serially diluted concentrations. […] Incubation was performed at 37° C. for 18 hours, and then absorbance was measured at 600 nm using an EPOCH2 microplate reader (BioTek, Winooski, USA) to calculate a MIC value. […] Fold reduction was calculated using the following expression.
(§1) Fold reduction=MIC of antibiotic alone/MIC of antibiotic in presence of sensitizing peptide
The same MIC assay method as in Example 3 was used.
(§2) ATCC 25922, A.b. ATCC 17978, K.p. ATCC 700603, and P.a. ATCC 27853, or CRE (E.c. NDM-1, K.p. NDM-1, or K.p. KPC) (FIGS. 9 and 10).

host cells = conditions: cited from earlier work
Gram-negative bacteria = conditions: cited from earlier work
[2] = tested on: Acinetobacter baumannii ATCC 17978; experiment: MIC assay, sensitizing effect of peptide on antibiotics; type: cell-based
[3] = tested on: E.c. ATCC 25922, A.b. ATCC 17978, K.p. ATCC 700603, P.a. ATCC 27853, or CRE (E.c. NDM-1, K.p. NDM-1, or K.p. KPC); experiment: MIC assay, comparison with L9P on rifampicin or colistin; type: cell-based; conditions: FIGS. 9 and 10
Description: (§3) All MIC assay experiments were performed using the Clinical and Laboratory Standards Institute (CLSI) guidelines (Clinical & Laboratory Standards Institute: CLSI Guidelines, 2017). Bacterial cells cultured overnight were diluted to 0.05 McFarland standard using McFarland (KIT […] PLUS INSTRUMENT, Biomerieux) in Muller Hinton II Broth (cation-adjusted) (Difco). The cells were inoculated at 1.5×10^5 CFU per 200 μL solution of each well in a 96-well plate. The peptide and the antibiotic were prepared using 2-fold serially diluted concentrations. […] Incubation was performed at 37° C. for 18 hours, and then absorbance was measured at 600 nm using an EPOCH2 microplate reader (BioTek, Winooski, USA) to calculate a MIC value. The MIC value was defined as a concentration of the antibiotic or peptide at which bacterial growth was inhibited to a level of lower than 10% growth of the positive control. Fold reduction was calculated using the following expression.
as §2

P.a. ATCC 27853 = experiment: MIC assay, sensitizing effect of peptide on rifampicin or colistin; type: cell-based, Pseudomonas aeruginosa; conditions: peptide 4 ug/ml
Description: as §3, §2

Ec NDM-1 = experiment: MIC assay, sensitizing effect of peptide on rifampicin (CRE); type: cell-based, E. coli; conditions: FIG. 9E; Ec NDM-1 (CRE); peptide 4 ug/ml
Description: as §3, §2

E. coli ATCC 25922 = experiment: MIC assay, sensitizing effect of peptide on antibacterial agents; type: cell-based
Description: as §3, §1
Using the same MIC assay method as in Example 1, sensitizing effects of the peptide L9P (CMP1107, 1 ug/ml), which is known as a conventional sensitive AMP, and CMP1401 (1 ug/ml) were compared on existing antibacterial agents against E. coli ATCC 25922 (FIG. 5A).
In addition, MIC screening was used to compare sensitizing effects of the competitive drug SPR741 and the peptide CMP1401 or CMP1501 on the existing antibacterial agents against E. coli ATCC 25922 (FIGS. 5B and 5C). SPR741, which is a previously known polymyxin B (PMB) analog, is a sensitive AMP, and is a drug that has been identified through preclinical experiments to be effective against Gram-negative bacteria in a case of being used together with existing Gram-positive antibiotics.
as §2

K.p. KPC = experiment: MIC assay, sensitizing effect of peptide on rifampicin or colistin (CRE); type: cell-based, Klebsiella pneumoniae; conditions: peptide 4 ug/ml
Description: as §3, §2

E. coli NDM-1 = experiment: Neutropenic mouse thigh infection model; type: in vivo
Kp NDM-1 = experiment: MIC assay, sensitizing effect of peptide on rifampicin (CRE); type: cell-based, Klebsiella pneumoniae; conditions: FIG. 9F; Kp NDM-1 (CRE); peptide 4 ug/ml
Description: as §3, §2

K.p. ATCC 700603 = experiment: MIC assay, sensitizing effect of peptide on rifampicin; type: cell-based, Klebsiella pneumoniae; conditions: FIG. 9C, peptide 4 ug/ml
Description: as §3, §2

[4] = tested on: E. cloacae clinical strains; experiment: MIC50 and MIC90 in clinical strains with CMP1709 (colistin); type: cell-based; conditions: CMP1709 4 ug/ml with colistin vs colistin alone; results not shown
Text: (§4) The selected clinical strains E. coli, K. pneumoniae, E. cloacae, C. freundii, and S. marcescens were all carbapenem-resistant strains, and the selected clinical strain P. aeruginosa included 43 strains of imipenem- and meropenem-resistant strains, and 60 strains of imipenem- and meropenem-sensitive strains.
(§5) The results are illustrated in FIG. 11 (results not shown for colistin). The “Fold reduction of MIC90” in FIG. 11 indicates a MIC90 value observed in a case where the antibacterial agent was used in combination with CMP1709 as compared with a case where the antibacterial agent was used alone.

E. coli clinical strains = experiment: as above; type: cell-based; conditions: CMP1709 4 ug/ml with colistin vs colistin alone; results not shown
Text: as §4, §5

[5] = tested on: outer membrane of E. coli NDM-1; experiment: Enzyme assay, outer membrane leakage (β-lactamase release, CENTA); type: cell-based; conditions: peptide 0.63 or 1.30 uM, 37° C., 1 h; 200 μM CENTA
Description: (§6) It was observed, through an enzyme assay, whether the sensitizing peptide destroyed the outer and inner membranes of Gram-negative bacteria. In the presence of the sensitizing peptide, it was observed whether in a case where 1.5 mM ONPG was used together therewith, β-galactosidase was released from E. coli ATCC 25922 for the inner membrane, and whether in a case where 200 μM CENTA was used together therewith, β-lactamase was released from E. coli NDM-1 for the outer membrane.
Specifically, to determine leakage of the outer membrane, activity of the β-lactamase released from the outer membrane was evaluated. New Delhi metallo-β-lactamase-1 (NDm-1)-producing E. coli cells were washed three times with DPBS and suspended in the same buffer. The cells were diluted to an OD600 of 0.2 and treated with the peptide at a concentration of 0.63 or 1.30 uM at 37° C. for 1 h. After centrifugation, the supernatant was incubated with 200 μM CENTATM β-lactamase substrate at 37° C. for 1 hour. An optical density was obtained by measuring absorbance of a product of enzyme reaction at 405 nm using a microplate reader (Molecular Devices Co., Menlo Park, Calif.).
The results are illustrated in FIGS. 12A and 12B. The y-axis is absorbance measured at 405 nm, and higher absorbance is observed as a higher amount of β-lactamase is released due to destruction of the membrane.

[6] = tested on: inner membrane of E. coli ATCC 25922; experiment: Enzyme assay, inner membrane leakage (β-galactosidase release, ONPG); type: cell-based; conditions: 1.5 mM ONPG
Description: as §6
To determine leakage of the inner membrane, release of the cytoplasmic enzyme β-galactosidase was evaluated. The bacteria were diluted to OD600=1 and 1.5 mM ONPG (O-nitrophenyl-β-D-galactopyranoside) was added. Absorbance of a product of enzyme reaction was measured at 420 nm. The other procedures were carried out in the same manner as in the experiment for outer membrane destruction.

## Ac-AKLLKLLKKPLKLLK-NH2 [CMP1301]
[1]
  sensitizing ability to erythromycin and novobiocin: excellent sensitizing ability

## Ac-KKALKLLKKPLKLLK-NH2 [CMP1303]
[1]
  MIC reduction effect (fold reduction) of erythromycin: 8 times

## Ac-KKLLKLAKKPLKLLK-NH2 [CMP1307]
[1]
  MIC reduction effect (fold reduction) of erythromycin: 8 times
  sensitizing ability to erythromycin and novobiocin: excellent sensitizing ability

## Ac-KKLLKLLKKPLKLLK-NH2 [CMP1203]
[1]
  MIC reduction effect (fold reduction) of erythromycin: two times

## Ac-KLLKLLKKPLKLLK-NH2 [CMP1107]
Host cells
  toxicity to host cells: low toxicity to host cells
Gram-negative bacteria; Korean Patent No. 1811437
  efficacy against E. coli: weak efficacy against E. coli
Gram-negative bacteria; previously known sensitizing peptide
  destruction of membranes of Gram-negative bacteria (known property): known to not destroy the membranes of Gram-negative bacteria

## HexA-KKALKLAKKPLKLLK-NH2 (Hexanoyl-KKALKLAKKPLKLLK-NH2) [CMP1406]
[2]; peptide 0.31 μM, vs fusidic acid alone
  sensitizing effect for fusidic acid: 32 times
[2]; peptide 0.31 μM, vs novobiocin alone
  sensitizing effect for novobiocin: 8 times
[2]; peptide 0.31 μM, vs rifampicin alone
  sensitizing effect for rifampicin: 8 times

## OctA-DabDabAFDabVADabDabPLSLLDab-NH2 (Octanoyl-[Dab][Dab]AF[Dab]VA[Dab][Dab]PLSLL[Dab]-NH2; SMILES CCCCCCCC(=O)N[C@@H](CCN)C(=O)N[C@@H](CCN)C(=O)N[C@@H](C)C(=O)N[C@@H](Cc1ccccc1)C(=O)N[C@@H](CCN)C(=O)N[C@H](C(=O)N[C@@H](C)C(=O)N[C@@H](CCN)C(=O)N[C@@H](CCN)C(=O)N1CCC[C@H]1C(=O)N[C@@H](CC(C)C)C(=O)N[C@@H](CO)C(=O)N[C@@H](CC(C)C)C(=O)N[C@@H](CC(C)C)C(=O)N[C@@H](CCN)C(N)=O)C(C)C) [CMP1709]
[2]; FIG. 9B, A.b. ATCC 17978, peptide 4 ug/ml
  Decreased MIC value of rifampicin at peptide concentration of 4 ug/ml: 0.078 µg/mL
[3]
  sensitizing effect on rifampicin or colistin compared with L9P: very good sensitizing effect
P.a. ATCC 27853; FIG. 9D
  Decreased MIC value of rifampicin at peptide concentration of 4 ug/ml: 0.25 µg/mL
P.a. ATCC 27853; FIG. 10B
  Decreased MIC value of colisitin at peptide concentration of 4 ug/ml: 0.063 µg/mL
Ec NDM-1
  Decreased MIC value of rifampicin at peptide concentration of 4 ug/ml: 0.0040 µg/mL
E. coli ATCC 25922; FIG. 9A, E.c. ATCC 25922, peptide 4 ug/ml
  Decreased MIC value of rifampicin at peptide concentration of 4 ug/ml: 0.0020 µg/mL
E. coli ATCC 25922; FIG. 10A, E.c. ATCC 25922, peptide 4 ug/ml
  Decreased MIC value of colisitin at peptide concentration of 4 ug/ml: 0.016 µg/mL
K.p. KPC; FIG. 9G
  Decreased MIC value of rifampicin at peptide concentration of 4 ug/ml: 0.0078 µg/mL
K.p. KPC; FIG. 10C
  Decreased MIC value of colisitin at peptide concentration of 4 ug/ml: 0.50 µg/mL
E. coli NDM-1; CMP1709 75 mg/kg in the presence of 20 mg/kg of rifampicin
  decrease in number of colonies compared with rifampicin alone: 8.7 fold
E. coli NDM-1; CMP1709 alone
  number of colonies, peptide administered alone: No changes were observed in the number of colonies
E. coli NDM-1; rifampicin and CMP1709
  therapeutic efficacy of combination therapy with rifampicin: excellent therapeutic efficacy
Kp NDM-1
  Decreased MIC value of rifampicin at peptide concentration of 4 ug/ml: 0.0078 µg/mL
K.p. ATCC 700603
  Decreased MIC value of rifampicin at peptide concentration of 4 ug/ml: 0.0078 µg/mL
[4]
  sensitizing effect with colistin: two times
E. coli clinical strains
  sensitizing effect with colistin: two times

## OctA-DabDabALDabLADabDabPLDabLLDab-NH2 [CMP1501]
E. coli ATCC 25922; FIGS. 5B and 5C
  sensitizing effect on existing antibacterial agents compared with SPR741: almost the same or much better sensitizing effect
E. coli ATCC 25922; peptide 0.5 ug/ml
  sensitizing effects on rifampicin and linezolid: excellent sensitizing effects
E. coli ATCC 25922; peptide concentration decreased by half as compared with SPR741, FIG. 5C
  sensitizing effect compared with SPR741 at half its concentration: equal or superior effect

## OctA-KKLLKLLKKPLKLLK-NH2 (Octanoyl-KKLLKLLKKPLKLLK-NH2; SMILES CCCCCCCC(=O)N[C@@H](CCCCN)C(=O)N[C@@H](CCCCN)C(=O)N[C@@H](CC(C)C)C(=O)N[C@@H](CC(C)C)C(=O)N[C@@H](CCCCN)C(=O)N[C@@H](CC(C)C)C(=O)N[C@@H](CC(C)C)C(=O)N[C@@H](CCCCN)C(=O)N[C@@H](CCCCN)C(=O)N1CCC[C@H]1C(=O)N[C@@H](CC(C)C)C(=O)N[C@@H](CCCCN)C(=O)N[C@@H](CC(C)C)C(=O)N[C@@H](CC(C)C)C(=O)N[C@@H](CCCCN)C(N)=O) [CMP1407]
[5]
  destruction of outer membrane (β-lactamase release): did not destroy these membranes
[6]
  destruction of inner membrane (β-galactosidase release): did not destroy these membranes
